Assay results: US20210181215A1, “TREATMENT AND DIAGNOSIS OF ANAEMIA” (THE UNIVERSITY COURT OF THE UNIVERSITY OF ABERDEEN, priority 2017, published 2021)
Entries after “also recorded” stand apart in the source; their conditions may differ.

Columns and labels:
[1] = molecular target: T1, Galanthus nivalis lectin (GNA) (Galanthus nivalis, UniProt P30617); assay: Flow cytometry blockade of GNA lectin binding to the RBC surface; settings: oxidised / SCD RBC; lectin pre-incubated with mannan 5 mg/ml for 15 min
T1 construct: purchased Vector Laboratories B1245
T1 sequence (P30617 24-128 limits assumed): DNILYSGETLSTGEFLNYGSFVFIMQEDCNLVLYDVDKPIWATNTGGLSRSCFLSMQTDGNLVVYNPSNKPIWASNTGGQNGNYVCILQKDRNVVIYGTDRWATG
Method: RBC, approximately 5×10^6 per test, were washed three times in PBS, and then incubated in calcium buffer with biotinylated GNA (4 μg/ml, Vector Laboratories, B1245) or in PBS for PNA-FITC (2 μg/ml Sigma Aldrich L7381) for 30 minutes in calcium buffer at room temperature (protected from light). Cells were then washed and incubated with streptavidin PE-Cy7 (0.27 μg/ml; eBioscience) or PE (0.67 μg/ml; BD Pharmingen) for 30 min at room temperature. Cells were washed and analysed.
(§1) For blockade testing, Lectin or FC fusion were pre-incubated with mannan (5 mg/ml, unless otherwise stated) for 15 minutes at room temperature. Mixture of mannan and Lectin or FC fusion was then incubated with washed RBC and compared to binding of Lectin or FC fusion without mannan.
(§2) Samples were acquired on FACSCalibur (BD) and analysed using FlowJo v10.0 (Treestar) software. The normalised geomean was calculated by subtracting the geomean of the secondary only paired controls. For PNA-FITC analysis, normalised geomean was calculated by subtracting geomean of unstained RBC (PBS incubation) control.

[2] = tested on: uptake of RBC from patients with SCD (HbSS) by HMDM; assay: Efferocytosis assay: uptake of RBC from patients with SCD by HMDM; format: cell-based, human; settings: 3 h assay, mannan 10 mg/ml, chitin 50 μg/ml, anti-CD206 10 μg/ml
Method: (§3) For clear identification of efferocytosis by microscopy, RBC were stained with cell trace far red (CTFR; Molecular Probes) according to manufacturer's instructions. RBC were added to HMDM at 5×10^7 cells per well for three hours before gentle removal and fixation with 4% paraformaldehyde. To identify cells bound but not and ingested by HMDM the cells were stained with anti-glycophorin A/B FITC (HIR2, Biolegend).
(§4) Ligand binding of CD206 was blocked with antibody clone 15.2 (10 μg/ml; BioLegend) by adding antibody or isotype control (10 μg/ml mouse IgG1 kappa clone 107.3, BD Biosciences) for 60 minutes prior to three hour efferocytosis assay and were not removed.
(§5) Mannan (10 mg/ml), chitin (50 μg/ml) and laminarin (10 μg/ml; all Sigma Aldrich) were applied for 60 minutes prior to three hour efferocytosis/phagocytosis assay and were not removed.
(§6) Cells were imaged at 32 times magnification using Immuno-Fluorescent Microscope (Zeiss).

[3] = tested on: oxidised RBC uptake by HMDM; assay: Efferocytosis assay: uptake of oxidised RBC by human monocyte derived macrophages; format: cell-based; settings: RBC oxidised with CuSO4/ascorbic acid, 3 h assay, mannan 10 mg/ml, chitin 50 μg/ml, laminarin 10 μg/ml, anti-CD206 clone 15.2 10 μg/ml applied 60 min before, siRNA against MRC-1
Method: RBC and SHSy5y neuronal cells were incubated with copper sulphate (CuSO4, 0.2 mM) and ascorbic acid (5 mM) for 60 minutes (RBC) or 30 minutes (SHSy5y) at 37° C. in DMEM with 4.5 g/L glucose. Cells were then washed in PBS three times prior to assays.
as §3, §4, §5, §6
To access percentage MR positive spindle/small round macrophages, anti-MR antibody (unlabelled clone 19.2) was stained with anti-mouse PE secondary antibody. Only spindle/small round macrophage population was examined as this is the subpopulation that expresses MR in wild type macrophages. SiRNA ([…], antisense, concentration Life Technologies) against mannose receptor (MRC-1) in humans was transfected into primary macrophages (RNAiMax, Life Technologies). (n=4 donors for all SiRNA experiments. Autologous red blood cells were used with macrophages.) Mannose receptor expression was established by microscopy using MR-Alexa-488 staining (described above) in the small non-granular macrophage sub-population by merging bright field and mannose receptor fluorescence staining.

[4] = tested on: untreated RBC uptake by HMDM; assay: Efferocytosis assay: uptake of untreated RBC by HMDM; format: cell-based, human; settings: 3 h assay
Method: as §3, §5, §6

[5] = tested on: phagocytosis of beads by HMDM; assay: Bead phagocytosis assay with HMDM (control); format: cell-based, human; settings: 3 h
Method: Coumarin stained Fluoresbrite microparticles (8 μm; Polysciences, Inc.) were added to HMDM at 5×107 beads per well for three hours before gentle removal and suspension in PBS for immediate imaging.
as §4, §5, §6

[6] = tested on: carbohydrate binding domain of the mannose receptor CD206 (MR-CRD); assay: Flow cytometry blockade of MR-CRD (CD206 carbohydrate binding domain, Fc fusion) staining of oxidised RBC; parameters: species or system murine; settings: FC fusion pre-incubated with mannan 5 mg/ml
Sequence of carbohydrate binding domain of the mannose receptor CD206 (MR-CRD) (Q61830 645-781 limits assumed): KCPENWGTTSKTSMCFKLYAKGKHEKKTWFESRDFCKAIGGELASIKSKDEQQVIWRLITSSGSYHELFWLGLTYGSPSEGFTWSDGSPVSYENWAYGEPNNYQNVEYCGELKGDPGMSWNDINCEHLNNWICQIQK
Method: Humanised FC fusions of murine C-type lectins (5 μg/ml, kind gift from Gordon Brown, Screening for Ligands of C-Type Lectin-Like Receptors, Elwira PyżGordon D. Brown, 2011) were incubated with RBC for 30 minutes at room temperature in calcium buffer then detected by Alexa Fluor 647 goat anti-human secondary antibody (2 μg/ml, 109-605-098, Jackson ImmunoResearch Laboratories) incubated for 30 minutes at room temperature.
as §1, §2

Row | Substance | blockade of GNA binding to RBC surface (FACS) [1] | uptake of RBC from patients with SCD by HMDM [2] | uptake (efferocytosis) of oxidised RBC by HMDM [3] | uptake of untreated RBC by HMDM [4] | phagocytosis of control beads by HMDM [5] | blockade of MR-CRD staining of oxidised RBC (FACS) [6] | uptake (efferocytosis) of oxidised RBC by HMDM ([3]; listed as Mannan)
1 | chitin | inhibitable | significantly inhibited; also recorded: blocked | significantly inhibited; also recorded: abrogated | not untreated | – | – | –
2 | mannan | effective blockade; also recorded: inhibitable | significantly inhibited; also recorded: blocked | significantly inhibited; also recorded: abrogated | not untreated | no effect | effective blockade | significantly blocked uptake
3 | laminarin | – | – | not laminarin, significantly inhibited | – | – | – | –
